According to US8293781B2, “Indole derivatives having cPLA2 inhibiting activity and applications and production methods of the same” (Daiichi Sankyo Company, Limited, priority 2007, dated 2012):
Counter-ions that a name gives are not always drawn.

The compounds below were run against T1, cPLA2 crudely purified from the cytoplasm fraction of U937 (Homo sapiens, UniProt P47712) (assay: Measurement of cPLA2 inhibitory activity (release of [14C]-arachidonic acid from phosphatidyl choline liposome)). Conditions: not given.
T1 construct: cPLA2 crudely purified from the cytoplasm fraction of U937; endogenous in cells; host or cells: U937 cells (cytoplasm fraction, crude purification)
T1 sequence (P47712 1-749): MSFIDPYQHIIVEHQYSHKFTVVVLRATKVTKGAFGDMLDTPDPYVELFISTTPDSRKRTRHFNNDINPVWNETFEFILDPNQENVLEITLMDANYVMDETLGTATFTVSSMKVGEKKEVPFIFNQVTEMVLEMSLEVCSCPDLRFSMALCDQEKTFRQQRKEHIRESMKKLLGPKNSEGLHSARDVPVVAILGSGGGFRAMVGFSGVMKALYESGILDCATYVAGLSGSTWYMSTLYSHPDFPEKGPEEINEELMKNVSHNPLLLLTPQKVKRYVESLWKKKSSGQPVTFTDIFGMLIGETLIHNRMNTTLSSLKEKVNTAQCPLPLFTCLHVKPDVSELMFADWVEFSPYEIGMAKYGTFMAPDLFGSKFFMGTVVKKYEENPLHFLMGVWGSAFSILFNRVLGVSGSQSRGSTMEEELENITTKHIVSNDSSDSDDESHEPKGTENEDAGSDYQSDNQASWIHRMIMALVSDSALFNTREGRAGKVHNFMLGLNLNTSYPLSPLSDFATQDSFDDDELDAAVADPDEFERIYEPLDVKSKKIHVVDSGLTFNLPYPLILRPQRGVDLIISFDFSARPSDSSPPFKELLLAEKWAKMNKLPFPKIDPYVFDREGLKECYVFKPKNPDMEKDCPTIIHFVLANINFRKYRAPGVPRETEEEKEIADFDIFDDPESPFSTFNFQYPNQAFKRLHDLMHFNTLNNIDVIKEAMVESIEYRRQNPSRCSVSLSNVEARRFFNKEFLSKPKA
Assay type: biochemical
Method: The cPLA2 inhibitory activity was measured based on the method described in the document [See H. Naraba et al., J. Immunol. 160, 2974-2982 (1998)] and modified in the following way.
A DMSO solution of the present invitation compounds was diluted to 2.5 times the final concentration with the assay buffer (4 mM CaCl2, 2 mM dithiothreitol, 150 mM NaCl, 50 mM HEPES buffer solution (pH7.5)) containing 0.55 mg/ml BSA. To 20 μl of this, cPLA2 crudely purified from the cytoplasm fraction of U937 was added in an amount of 10 μl after dilution by an assay buffer solution containing 0.55 mg/ml BSA. A liposome prepared by ultrasonically treating L-α-1-palmitoyl-2-[14C]arachidonyl-phosphatidyl choline (made by PerkinElmer) and adjusted by the assay buffer solution to a concentration of phosphatidyl choline of 10 μM was added and stirred in by an amount of 20 μl and the mixture was reacted at 37° C. for 60 minutes. The [^14C]-arachidonic acid released due to the reaction was extracted based on the method described in the documents [see V. P. Dole et al., J. Biol. Chem. 235, 2595 (1960)], was added to Lumaplate® (made by PerkinElmer), dried, then measured by Topcount® (made by PerkinElmer). Except for not adding the present invention compounds, the same procedure was performed as the above to obtain the enzyme control. Except for not adding the invention compounds and not adding the enzyme, the same procedure was followed as above to obtain a negative control. The inhibiting activity was expressed as a percent (%) of the value minus the negative control with respect to the value of the enzyme control minus the negative control. From this, the 50% inhibiting concentration (IC50, μM) was calculated.

Row | Structure (SMILES) | IC50 [nM]
1 | Cc1c(C(=O)Cc2ccccc2)c2cc(/C=C/C(=O)O)ccc2n1-c1ccccc1 [Example 44, (2E)-3-[2-methyl-1-phenyl-3-(phenylacetyl)-1H-indol-5-yl]-2-propenoic acid] | 421

Same assay, conditions: cPLA2 from U937 cytoplasm fraction, [14C]arachidonyl-phosphatidyl choline liposome, 37° C., 60 minutes; read-out: cPLA2 inhibitory activity, 50% inhibiting concentration IC50

Row | Structure (SMILES) | IC50 [nM]
2 | c1ccc(CCc2cn(-c3ccccc3)c3ccc(CCc4nnn[nH]4)cc23)cc1 [Example 24, 1-phenyl-3-(2-phenylethyl)-5-[2-(1H-tetrazol-5-yl)ethyl]-1H-indole] | 12800
3 | O=C(O)CCc1ccc2c(c1)c(CCc1ccccn1)cn2-c1ccc(O)cc1 [Example 269, 3-[1-(4-hydroxyphenyl)-3-(2-pyridin-2-ylethyl)-1H-indol-5-yl]propanoic acid hydrochloride] | 77
4 | O=C(O)CCc1ccc2c(c1)c(CCc1ccccc1)cn2-c1ccc(OCCc2ccncc2)cc1 [Example 255, 3-{3-(2-phenylethyl)-1-[4-(2-pyridin-4-ylethoxy)phenyl]-1H-indol-5-yl}propanoic acid] | 12
5 | CC(C)(C)C(=O)Nc1cccc(-n2cc(CCc3ccccc3)c3cc(CCC(=O)O)ccc32)c1 [Example 171, 3-[1-{3-[(2,2-dimethylpropanoyl)amino]phenyl}-3-(2-phenylethyl)-1H-indol-5-yl]propanoic acid] | 210
6 | O=C(O)CCc1ccc2c(c1)c(CCc1ccccc1)cn2-c1ccc(OCCO)cc1 [Example 228, 3-{1-[4-(2-hydroxyethoxy)phenyl]-3-(2-phenylethyl)-1H-indol-5-yl}propanoic acid] | 4
7 | O=C(O)/C=C/c1ccc2c(c1)c(Cc1ccccc1)cn2-c1ccccc1 [Example 7, (2E)-3-(3-benzyl-1-phenyl-1H-indol-5-yl)-2-propenoic acid] | 1040
8 | CC(C)(C)c1ccc(-n2cc(CCc3ccccc3)c3cc(CCC(=O)O)ccc32)cc1 [Example 103, 3-[1-(4-tert-butylphenyl)-3-(2-phenylethyl)-1H-indol-5-yl]propanoic acid 2-amino-2-(hydroxymethyl)propane-1,3-diol salt (1:1)] | 419
9 | NC(=O)CCc1ccc2c(c1)c(CCc1ccccc1)cn2-c1ccccc1 [Example 22, 3-[1-phenyl-3-(2-phenylethyl)-1H-indol-5-yl]propanamide] | > 100000
10 | O=C(O)CCc1ccc2c(c1)c(CCc1ccccc1)cn2-c1ccc(S(=O)(=O)N2CCOCC2)cc1 [Example 320, 3-{1-[4-(morpholin-4-ylsulfonyl)phenyl]-3-(2-phenylethyl)-1H-indol-5-yl}propanoic acid] | 258
11 | O=C(O)CCc1ccc2c(c1)c(CCc1ccccc1)cn2-c1ccc(OCc2cccnc2)cc1 [Example 249, 3-{3-(2-phenylethyl)-1-[4-(pyridin-3-ylmethoxy)phenyl]-1H-indol-5-yl}propanoic acid hydrochloride] | 26
12 | COc1ccc(-n2cc(CCc3ccccc3)c3cc(/C=C/C(=O)O)ccc32)cc1 [Example 74, (2E)-3-[1-(4-methoxyphenyl)-3-(2-phenylethyl)-1H-indol-5-yl]-2-propenoic acid] | 157
13 | O=C(O)CCc1ccc2c(c1)c(CCc1ccccn1)cn2-c1ccc(OCc2ccccc2)cc1 [Example 268, 3-{1-[4-(benzyloxy)phenyl]-3-(2-pyridin-2-ylethyl)-1H-indol-5-yl}propanoic acid] | 19
14 | O=C(O)CCc1ccc2c(c1)c(CCCc1ccccc1)cn2-c1ccc(O)cc1 [Example 340, 3-[1-(4-hydroxyphenyl)-3-(3-phenylpropyl)-1H-indol-5-yl]propanoic acid] | 568
15 | O=C(O)CCc1ccc2c(c1)c(CCc1ccccc1)cn2-c1ccc([N+](=O)[O-])cc1 [Example 83, 3-[1-(4-nitrophenyl)-3-(2-phenylethyl)-1H-indol-5-yl]propanoic acid] | 101
16 | O=C(O)CCc1ccc2c(c1)c(CCc1ccccc1)cn2-c1ccccc1 [Example 16, 3-[1-phenyl-3-(2-phenylethyl)-1H-indol-5-yl]propanoic acid] | 75
17 | O=C(O)/C=C/c1ccc2c(c1)c(CCc1ccccn1)cn2-c1ccccc1 [Example 263, (2E)-3-[1-phenyl-3-(2-pyridin-2-ylethyl)-1H-indol-5-yl]-2-propenoic acid] | 1440
18 | O=C(O)CCc1ccc2c(c1)c(CCc1ccccc1)cn2-c1ccc(Cl)cc1 [Example 105, 3-[1-(4-chlorophenyl)-3-(2-phenylethyl)-1H-indol-5-yl]propanoic acid 2-amino-2-(hydroxymethyl)propane-1,3-diol salt (1:1)] | 36
19 | O=C(O)CCc1ccc2c(c1)c(CCc1ccccc1)cn2-c1ccc(CCO)cc1 [Example 209, 3-{1-[4-(2-hydroxyethyl)phenyl]-3-(2-phenylethyl)-1H-indol-5-yl}propanoic acid] | 244
20 | O=C(O)/C=C/c1ccc2c(c1)c(CCc1ccccn1)cn2-c1ccc(OCc2ccccc2)cc1 [Example 267, (2E)-3-{1-[4-(benzyloxy)phenyl]-3-(2-pyridin-2-ylethyl)-1H-indol-5-yl}-2-propenoic acid] | 110
21 | O=C(CCc1ccc2c(c1)c(CCc1ccccc1)cn2-c1ccc(Oc2ccccc2)cc1)C(F)(F)F [Example 330, 1,1,1-trifluoro-4-[1-(4-phenoxyphenyl)-3-(2-phenylethyl)-1H-indol-5-yl]butan-2-one] | 726
22 | O=C(O)CCc1ccc2c(c1)c(CCc1ccccc1)cn2-c1cc(F)c(OCc2ccccc2)c(F)c1 [Example 288, 3-{1-[4-(benzyloxy)-3,5-difluorophenyl]-3-(2-phenylethyl)-1H-indol-5-yl}propanoic acid 2-amino-2-(hydroxymethyl)propane-1,3-diol salt (1:1)] | 264
23 | O=C(O)/C=C/c1ccc2c(c1)c(CCc1ccccn1)cn2-c1ccc(O)cc1 [Example 271, (2E)-3-[1-(4-hydroxyphenyl)-3-(2-pyridin-2-ylethyl)-1H-indol-5-yl]-2-propenoic acid] | 357
24 | CCOc1ccc(-n2cc(CCc3ccccc3)c3cc(CCC(=O)N(C)OC)ccc32)cc1 [Example 116, 3-[1-(4-ethoxyphenyl)-3-(2-phenylethyl)-1H-indol-5-yl]-N-methoxy-N-methylpropanamide] | 2170
25 | O=C(O)CCc1ccc2c(c1)c(CCc1ccccn1)cn2-c1ccc(OC(F)F)cc1 [Example 277, 3-{1-[4-(difluoromethoxy)phenyl]-3-(2-pyridin-2-ylethyl)-1H-indol-5-yl}propanoic acid hydrochloride] | 98
26 | O=C(O)CCc1ccc2c(c1)c(CCc1ccccc1)cn2-c1ccc(OCc2ccccn2)cc1 [Example 246, 3-{3-(2-phenylethyl)-1-[4-(pyridin-2-ylmethoxy)phenyl]-1H-indol-5-yl}propanoic acid hydrochloride] | 7
27 | O=C(O)CCc1ccc2c(c1)c(CCc1ccccc1)cn2-c1ccc(CN2CCOCC2)cc1 [Example 308, 3-{1-[4-(morpholin-4-ylmethyl)phenyl]-3-(2-phenylethyl)-1H-indol-5-yl}propanoic acid] | 149
28 | O=C(O)CCc1ccc2c(c1)c(CCc1ccccc1)cn2-c1ccc(OCCc2ccccn2)cc1 [Example 251, 3-{3-(2-phenylethyl)-1-[4-(2-pyridin-2-ylethoxy)phenyl]-1H-indol-5-yl}propanoic acid] | 9
29 | O=C(O)/C=C/c1ccc2c(c1)c(CCc1ccccc1)cn2-c1ccc(O)cc1 [Example 239, (2E)-3-[1-(4-hydroxyphenyl)-3-(2-phenylethyl)-1H-indol-5-yl]-2-propenoic acid] | 54
30 | O=C(O)CCc1ccc2c(c1)c(CCc1ccccc1)cn2-c1ccc(CO)cc1 [Example 220, 3-{1-[4-(hydroxymethyl)phenyl]-3-(2-phenylethyl)-1H-indol-5-yl}propanoic acid 2-amino-2-(hydroxymethyl)propane-1,3-diol salt (1:1)] | 146
